Source: PubChem BioAssay (NCI)
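All cell lines were grown in 96-well plates and treated with compound for 48 hours. Here, GI50 denotes the concentration required for 50% inhibition of growth. Definition used: TGI = concentration required for complete inhibition of growth.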

Assays:
Experiment in all cases: NCI anticancer screen, dose series, 48 h
OVCAR-5 ovarian = system: OVCAR-5 ovarian
786-0 renal = system: 786-0 renal
UACC-257 melanoma = system: UACC-257 melanoma
ACHN renal = system: ACHN renal
HOP-62 NSCLC = system: HOP-62 NSCLC
HCT-116 colon = system: HCT-116 colon
PC-3 prostate = system: PC-3 prostate
A549 NSCLC = system: A549 NSCLC
HCT-15 colon = system: HCT-15 colon
NCI-H226 lung = system: NCI-H226 lung
OVCAR-3 ovarian = system: OVCAR-3 ovarian
SNB-75 CNS = system: SNB-75 CNS
MCF7 breast = system: MCF7 breast
UO-31 renal = system: UO-31 renal
SN12C renal = system: SN12C renal
SW-620 colon = system: SW-620 colon
NCI-H460 lung = system: NCI-H460 lung
NCI/ADR-RES ovarian = system: NCI/ADR-RES ovarian
HL-60(TB) leukemia = system: HL-60(TB) leukemia
SF-268 CNS = system: SF-268 CNS
IGROV1 ovarian = system: IGROV1 ovarian
RXF 393 renal = system: RXF 393 renal
SK-MEL-5 melanoma = system: SK-MEL-5 melanoma
MDA-MB-231 breast = system: MDA-MB-231 breast
BT-549 breast = system: BT-549 breast
M14 melanoma = system: M14 melanoma
K-562 leukemia = system: K-562 leukemia
SF-539 CNS = system: SF-539 CNS
TK-10 renal = system: TK-10 renal
OVCAR-4 ovarian = system: OVCAR-4 ovarian
U251 CNS = system: U251 CNS
HOP-92 NSCLC = system: HOP-92 NSCLC
OVCAR-8 ovarian = system: OVCAR-8 ovarian
MDA-MB-435 = system: MDA-MB-435
MOLT-4 leukemia = system: MOLT-4 leukemia
DU-145 prostate = system: DU-145 prostate
NCI-H522 lung = system: NCI-H522 lung
SNB-19 CNS = system: SNB-19 CNS
KM12 colon = system: KM12 colon
SK-MEL-28 melanoma = system: SK-MEL-28 melanoma
MALME-3M melanoma = system: MALME-3M melanoma
HT29 colon = system: HT29 colon
NCI-H23 lung = system: NCI-H23 lung
SF-295 CNS = system: SF-295 CNS
UACC-62 melanoma = system: UACC-62 melanoma
SK-OV-3 ovarian = system: SK-OV-3 ovarian
RPMI-8226 leukemia = system: RPMI-8226 leukemia
EKVX NSCLC = system: EKVX NSCLC
LOX IMVI melanoma = system: LOX IMVI melanoma
T-47D breast = system: T-47D breast
HS 578T breast = system: HS 578T breast
CAKI-1 renal = system: CAKI-1 renal
COLO 205 colon = system: COLO 205 colon
HCC-2998 colon = system: HCC-2998 colon
SK-MEL-2 melanoma = system: SK-MEL-2 melanoma
A498 renal = system: A498 renal

C=CCCCCC/C=C\[C@@H](O)C#CC#C/C=C/CO
GI50 (OVCAR-5 ovarian): > 100 µM
TGI (OVCAR-5 ovarian): > 100 µM
GI50 (786-0 renal): > 100 µM
TGI (786-0 renal): > 100 µM
GI50 (UACC-257 melanoma): > 100 µM
TGI (UACC-257 melanoma): > 100 µM
GI50 (ACHN renal): > 100 µM
TGI (ACHN renal): > 100 µM
GI50 (HOP-62 NSCLC): > 100 µM
TGI (HOP-62 NSCLC): > 100 µM
GI50 (HCT-116 colon): 45.7 µM
TGI (HCT-116 colon): > 100 µM
GI50 (PC-3 prostate): 28 µM
TGI (PC-3 prostate): > 100 µM
GI50 (A549 NSCLC): > 100 µM
TGI (A549 NSCLC): > 100 µM
GI50 (HCT-15 colon): > 100 µM
TGI (HCT-15 colon): > 100 µM
GI50 (NCI-H226 lung): 25.5 µM
TGI (NCI-H226 lung): 57.6 µM
GI50 (OVCAR-3 ovarian): 41.7 µM
TGI (OVCAR-3 ovarian): > 100 µM
GI50 (SNB-75 CNS): 0.536 µM
TGI (SNB-75 CNS): > 100 µM
GI50 (MCF7 breast): 32.7 µM
TGI (MCF7 breast): > 100 µM
GI50 (UO-31 renal): > 100 µM
TGI (UO-31 renal): > 100 µM
GI50 (SN12C renal): 57.5 µM
TGI (SN12C renal): > 100 µM
GI50 (SW-620 colon): 48.2 µM
TGI (SW-620 colon): > 100 µM
GI50 (NCI-H460 lung): > 100 µM
TGI (NCI-H460 lung): > 100 µM
GI50 (NCI/ADR-RES ovarian): > 100 µM
TGI (NCI/ADR-RES ovarian): > 100 µM
GI50 (HL-60(TB) leukemia): 11.2 µM
TGI (HL-60(TB) leukemia): 27.8 µM
GI50 (SF-268 CNS): 39 µM
TGI (SF-268 CNS): > 100 µM
GI50 (IGROV1 ovarian): 23.5 µM
TGI (IGROV1 ovarian): > 100 µM
GI50 (RXF 393 renal): > 100 µM
TGI (RXF 393 renal): > 100 µM
GI50 (SK-MEL-5 melanoma): > 100 µM
TGI (SK-MEL-5 melanoma): > 100 µM
GI50 (MDA-MB-231 breast): 40 µM
TGI (MDA-MB-231 breast): > 100 µM
GI50 (BT-549 breast): 49.9 µM
TGI (BT-549 breast): > 100 µM
GI50 (M14 melanoma): > 100 µM
TGI (M14 melanoma): > 100 µM
GI50 (K-562 leukemia): 18.5 µM
TGI (K-562 leukemia): 37.5 µM
GI50 (SF-539 CNS): > 100 µM
TGI (SF-539 CNS): > 100 µM
GI50 (TK-10 renal): > 100 µM
TGI (TK-10 renal): > 100 µM
GI50 (OVCAR-4 ovarian): > 100 µM
TGI (OVCAR-4 ovarian): > 100 µM
GI50 (U251 CNS): 38.7 µM
TGI (U251 CNS): > 100 µM
GI50 (HOP-92 NSCLC): > 100 µM
TGI (HOP-92 NSCLC): > 100 µM
GI50 (OVCAR-8 ovarian): 25.1 µM
TGI (OVCAR-8 ovarian): 68.9 µM
GI50 (MDA-MB-435): 68.8 µM
TGI (MDA-MB-435): > 100 µM
GI50 (MOLT-4 leukemia): 18.3 µM
TGI (MOLT-4 leukemia): 43.8 µM
GI50 (DU-145 prostate): > 100 µM
TGI (DU-145 prostate): > 100 µM
GI50 (NCI-H522 lung): 26 µM
TGI (NCI-H522 lung): 98.7 µM
GI50 (SNB-19 CNS): > 100 µM
TGI (SNB-19 CNS): > 100 µM
GI50 (KM12 colon): 77.5 µM
TGI (KM12 colon): > 100 µM
GI50 (SK-MEL-28 melanoma): 0.867 µM
TGI (SK-MEL-28 melanoma): > 100 µM
GI50 (MALME-3M melanoma): > 100 µM
TGI (MALME-3M melanoma): > 100 µM
GI50 (HT29 colon): > 100 µM
TGI (HT29 colon): > 100 µM
GI50 (NCI-H23 lung): 43.6 µM
TGI (NCI-H23 lung): > 100 µM
GI50 (SF-295 CNS): > 100 µM
TGI (SF-295 CNS): > 100 µM
GI50 (UACC-62 melanoma): > 100 µM
TGI (UACC-62 melanoma): > 100 µM
GI50 (SK-OV-3 ovarian): > 100 µM
TGI (SK-OV-3 ovarian): > 100 µM
GI50 (RPMI-8226 leukemia): 16.3 µM
TGI (RPMI-8226 leukemia): 38.4 µM
GI50 (EKVX NSCLC): > 100 µM
TGI (EKVX NSCLC): > 100 µM
GI50 (LOX IMVI melanoma): 17.2 µM
TGI (LOX IMVI melanoma): 32.1 µM
GI50 (T-47D breast): > 100 µM
TGI (T-47D breast): > 100 µM
GI50 (HS 578T breast): > 100 µM
TGI (HS 578T breast): > 100 µM
GI50 (CAKI-1 renal): > 100 µM
TGI (CAKI-1 renal): > 100 µM
GI50 (COLO 205 colon): > 100 µM
TGI (COLO 205 colon): > 100 µM
GI50 (HCC-2998 colon): > 100 µM
TGI (HCC-2998 colon): > 100 µM
GI50 (SK-MEL-2 melanoma): > 100 µM
TGI (SK-MEL-2 melanoma): > 100 µM
GI50 (A498 renal): > 100 µM
TGI (A498 renal): > 100 µM
